From US20180008579A1, “PHARMACEUTICAL COMPOSITION FOR PREVENTING OR TREATING CHRONIC MYELOID LEUKEMIA AND METHOD USING THE SAME” (MEDPACTO INC., priority 2015, published 2018) come the findings set out here.

For assay [1], the system named is TT-CML affected mouse. In words: Peripheral blood leukocyte number, spleen and cell lineage in drug-administered TT-CML affected mouse. Format: in vivo. As to conditions: TEW-7197 2.5 mg/kg/day every three days, oral. The source says:
The number of leukocyte in the peripheral blood of the drug-administered TT-CML affected mouse is shown in FIG. 3A (n=5, NS: not significant), a photograph of the spleen thereof is shown in FIG. 3B (bar: 10 mm), and the weight of the spleen thereof is shown in FIG. 3C (n=3). Further, percentages (%) of T cell (detected using anti-CD4 antibody and anti-CD8 antibody), B cell (detected using anti-B220 antibody), and bone marrow cell (detected using anti-Macl antibody and anti-Gr-1 antibody) among the total BCR-ABL1-GFP^+ cells in the peripheral blood of the TEW-7197-administered TT-CML affected mouse are shown in FIG. 3D (n=3, NS: not significant).

For assay [2], the system named is TT-CML affected mouse. In words: Flow cytometry of GFP/BCR-ABL+ KLS+ and KLS- cells in TT-CML affected mouse. The class given is in vivo. As to conditions: TEW-7197 2.5 mg/kg/day every three days, oral, 30 days, peripheral blood. How it is done:
GFP/BCR-ABL^+c-Kit^+Lineage^−Sca-1^+(KLS^+) cells (bold box) and c-Kit^+Lineage^−Sca-1^− (KLS^−) cells (dotted box) in the peripheral blood were analyzed by flow cytometry, and the results are shown in FIG. 4A.

Assay [3] deals with TKI-resistant T315I TT-CML affected mouse. In words: Flow cytometry of T315I BCR-ABL-GFP+ KLS+ and KLS- cells in TKI-resistant T315I TT-CML affected mouse. Format: in vivo. The settings on record: ponatinib 15 mg/kg/day, TEW-7197 2.5 mg/kg/day every three days, oral, 30 days; peripheral blood; FIG. 5C. As to the method:
T315I BCR-ABL-GFP^+KLS^+ cells (bold box) and KLS^− cells (dotted box) in the peripheral blood were analyzed by flow cytometry, and the results are shown in FIG. 5A.

The subject of assay [4] is human CML-initiating cells. In words: Colony formation of human CML-initiating cells (CD34+CD38-Lin-) co-cultured with OP-9 stromal cells. As to conditions: cells of three CML patients, co-culture with OP-9, 3% oxygen; combination compared to single treatment of dasatinib; FIGS. 6A-6C. Format: cell-based. How it is done: Bone marrow mononuclear cells (Allcells, Cat. No. 06-255, 06-620, and 147742, CA) of three patients with chronic CML were prepared. Bone marrow mononuclear cells were stained with anti-CD34(8G12) antibody (BD Biosciences), anti-CD38(HIT2) antibody (BD Biosciences), anti-CD3(SK7) antibody (BD Biosciences), anti-CD16(3G8) antibody (BD Biosciences), anti-CD19(SJ25C1) antibody (BD Biosciences), anti-CD20([…]) antibody (BD Biosciences), anti-CD14(MfP9) antibody (BD Biosciences), and anti-CD56(NCAM16.2) antibody (BD Biosciences). A mouse antibody cocktail recognizing CD3, CD16, CD19, CD20, CD14 and CD56 was used to identify Lineage^- (Lin^-) cells, and CD34^+CD38^-Lin^- cells were separated. […] A control group was prepared in the same manner, except that DMSO was used. Cells were harvested and washed with PBS, and then cultured in methyl cellulose (Stem cell technologies, GFM3434) to measure colony formation of human CML-initiating cells.

As to `Cc1cccc(-c2[nH]c(CNc3ccccc3F)nc2-c2ccc3ncnn3c2)n1` [TEW-7197, N-((4-([1,2,4]triazolo[1,5-a]pyridin-6-yl)-5-(6-methylpyridin-2-yl)-1H-imidazol-2-yl)methyl)-2-fluoroaniline], in the assay on TT-CML affected mouse [1] (FIG. 3D), the “differentiation of bone marrow cells among the BCR-ABL1-GFP+ cells in peripheral blood” value is on record as “did not affect differentiation of bone marrow cells”. For the same molecule, the “number of leukocyte in the peripheral blood” value in the assay on TT-CML affected mouse [1] (dasatinib 5 mg/kg/day, about 30 days, compared to vehicle, FIG. 3A) is listed as “increased”. In addition, the “splenomegaly (spleen weight)” value in the assay with TT-CML affected mouse [1] (dasatinib 5 mg/kg/day, about 30 days, compared to vehicle, FIGS. 3B, 3C) was “promoted”. The “percentage of KLS+ cells among BCR-ABL1-GFP+ CML cells” value in the assay on TT-CML affected mouse [2] (FIG. 4C) was “remarkably decreased”. Also, the “percentage of KLS- cells among BCR-ABL1-GFP+ CML cells” value in the assay with TT-CML affected mouse [2] (dasatinib 5 mg/kg/day, FIG. 4B) was “remarkably decreased”. For the same molecule, the “percentage of T315I BCR-ABL-GFP+KLS+ cells” value in assay [3] is “remarkably decreased”. Moreover, the “colony formation of human CML-initiating cells” value in assay [4] was “significantly inhibited colony formation”.
